Earlier results on one compound are cited in patent US20050100594A1, “Pharmaceutical formulation containing muscle relaxant and COX-II inhibitor” (priority 2003, published 2005).

The subject of this data set is skeletal muscle fibers, neuromuscular junction, monosynaptic spinal reflexes. As to conditions: animal models.

Counter-ions that a name gives are not always drawn.

`Clc1ccc2nsnc2c1NC1=NCCN1` [Tizanidine, 5-chloro-4-(2-imidazolin-2-ylamino)-2,1,3-benzothiodiazole hydrochloride]: the “effect on monosynaptic spinal reflexes” value is recorded as “no major effect” and the “effect on skeletal muscle fibers or the neuromuscular junction” value is listed as “no direct effect”.
